Assay results reported in patent US20140058103A1, “Inhibitors of PI3K-Delta and Methods of Their Use and Manufacture” (Exelixis, Inc., priority 2010, published 2014).

Molecular target: PI3K delta (Homo sapiens, UniProt O00329)
Assay: Luciferase-coupled chemiluminescence kinase assay (ATP consumption, KinaseGlo)
Assay type: biochemical
Outline: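 ATP consumption measured by KinaseGlo luciferase chemiluminescence after a 2 h reaction at ambient temperature, with ATP at or below the kinase KM. Ten inhibitor concentrations per curve; IC50 from four-parameter nonlinear regression.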

Sequence of PI3K delta (O00329 whole entry): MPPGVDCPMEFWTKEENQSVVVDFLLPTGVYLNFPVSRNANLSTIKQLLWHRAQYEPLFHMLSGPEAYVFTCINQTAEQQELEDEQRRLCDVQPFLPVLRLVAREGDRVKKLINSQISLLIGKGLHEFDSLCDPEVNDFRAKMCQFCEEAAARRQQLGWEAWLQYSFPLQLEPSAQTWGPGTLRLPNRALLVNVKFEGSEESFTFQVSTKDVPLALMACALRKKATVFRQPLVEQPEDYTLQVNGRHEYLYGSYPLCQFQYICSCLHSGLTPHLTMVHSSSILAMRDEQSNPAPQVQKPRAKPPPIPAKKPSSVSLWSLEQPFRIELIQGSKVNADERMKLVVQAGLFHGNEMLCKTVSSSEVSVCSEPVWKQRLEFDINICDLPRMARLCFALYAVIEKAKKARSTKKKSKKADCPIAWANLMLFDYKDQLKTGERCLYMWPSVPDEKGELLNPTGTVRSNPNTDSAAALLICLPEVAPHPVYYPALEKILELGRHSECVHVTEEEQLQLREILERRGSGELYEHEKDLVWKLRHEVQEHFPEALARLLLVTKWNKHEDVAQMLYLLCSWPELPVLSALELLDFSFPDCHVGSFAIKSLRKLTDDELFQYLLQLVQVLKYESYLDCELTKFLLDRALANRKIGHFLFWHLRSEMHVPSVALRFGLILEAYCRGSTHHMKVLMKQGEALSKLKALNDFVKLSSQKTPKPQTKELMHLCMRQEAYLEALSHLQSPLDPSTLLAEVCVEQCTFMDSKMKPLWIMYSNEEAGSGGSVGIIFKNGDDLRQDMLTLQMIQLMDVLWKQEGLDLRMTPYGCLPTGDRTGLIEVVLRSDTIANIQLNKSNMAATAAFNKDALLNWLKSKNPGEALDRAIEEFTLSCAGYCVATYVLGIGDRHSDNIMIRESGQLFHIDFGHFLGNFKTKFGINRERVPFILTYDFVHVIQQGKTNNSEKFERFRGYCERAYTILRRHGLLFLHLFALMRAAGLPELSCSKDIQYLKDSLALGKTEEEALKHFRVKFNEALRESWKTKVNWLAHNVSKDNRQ
Sequence of PI3K delta (P27986 whole entry partner): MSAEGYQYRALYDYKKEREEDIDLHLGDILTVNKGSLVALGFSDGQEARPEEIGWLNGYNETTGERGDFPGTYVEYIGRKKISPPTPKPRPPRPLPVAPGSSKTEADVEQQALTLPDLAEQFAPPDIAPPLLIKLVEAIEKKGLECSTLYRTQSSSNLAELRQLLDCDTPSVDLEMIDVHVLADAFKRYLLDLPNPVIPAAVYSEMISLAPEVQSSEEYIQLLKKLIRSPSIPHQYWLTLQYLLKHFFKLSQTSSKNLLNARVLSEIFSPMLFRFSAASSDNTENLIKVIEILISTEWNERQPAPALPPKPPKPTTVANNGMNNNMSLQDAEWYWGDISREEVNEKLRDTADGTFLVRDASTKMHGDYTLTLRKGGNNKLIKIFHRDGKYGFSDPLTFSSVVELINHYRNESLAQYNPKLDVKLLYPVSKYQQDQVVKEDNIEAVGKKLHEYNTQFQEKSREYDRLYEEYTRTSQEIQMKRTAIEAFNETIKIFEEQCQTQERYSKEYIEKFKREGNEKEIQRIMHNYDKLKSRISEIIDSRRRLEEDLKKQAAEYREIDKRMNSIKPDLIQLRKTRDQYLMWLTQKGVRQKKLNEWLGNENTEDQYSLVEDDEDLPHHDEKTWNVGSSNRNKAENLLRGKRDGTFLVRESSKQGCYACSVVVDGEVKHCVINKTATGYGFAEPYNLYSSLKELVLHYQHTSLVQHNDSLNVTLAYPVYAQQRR

SMILES	IC50 [nM]
Cn1c(C(=O)NCc2cccc(F)c2)nc2c(N3CCC4(CC3)C(=O)Nc3ccccc34)ncnc21 [Compound 28, N-[(3-fluorophenyl)methyl]-9-methyl-6-(2-oxo-1,2-dihydro-1′H-spiro[indole-3,4′-piperidin]-1′-yl)-9H-purine-8-carboxamide]	250 to 500
CCn1c(-c2cnn(C)c2C)nc2c(N3CCC4(CC3)C(=O)Nc3ccccc34)ncnc21 [Compound 261, 1′-[8-(1,5-dimethyl-1H-pyrazol-4-yl)-9-ethyl-9H-purin-6-yl]spiro[indole-3,4′-piperidin]-2(1H)-one]	< 50
Cn1c(N2CCCC2)nc2c(N3CCC(n4c(=O)[nH]c5ccccc54)CC3)ncnc21 [Compound 126, 1-[1-(9-methyl-8-pyrrolidin-1-yl-9H-purin-6-yl)piperidin-4-yl]-1,3-dihydro-2H-benzimidazol-2-one]	500 to 1500
Cn1c(C(=O)NCC2CC2)nc2c(N3CCC4(C3)C(=O)Nc3ccccc34)ncnc21 (stereo not shown) [Compound 98, N-(cyclopropylmethyl)-9-methyl-6-(2-oxo-1,2-dihydro-1′H-spiro[indole-3,3′-pyrrolidin]-1′-yl)-9H-purine-8-carboxamide]	500 to 1500
Cn1cc(-c2nc3c(N4CCN(S(=O)(=O)c5ccc(Cl)c(Cl)c5)CC4)ncnc3n2C)cn1 [Compound 380, 6-{4-[(3,4-dichlorophenyl)sulfonyl]piperazin-1-yl}-9-methyl-8-(1-methyl-1H-pyrazol-4-yl)-9H-purine]	50 to 250
Cn1c(C(=O)NCc2cccs2)nc2c(N3CCC4(CC3)C(=O)Nc3ccccc34)ncnc21 [Compound 20, 9-methyl-6-(2-oxo-1,2-dihydro-1′H-spiro[indole-3,4′-piperidin]-1′-yl)-N-(2-thienylmethyl)-9H-purine-8-carboxamide]	50 to 250
Cn1c(C(=O)NCC2CCCOC2)nc2c(N3CCC(n4c(=O)[nH]c5ccccc54)CC3)ncnc21 (stereo not shown) [Compound 11, 9-methyl-6-[4-(2-oxo-2,3-dihydro-1H-benzimidazol-1-yl)piperidin-1-yl]-N-(tetrahydro-2H-pyran-3-ylmethyl)-9H-purine-8-carboxamide]	250 to 500
CC(C)CNC(=O)c1nc2c(N3CCC4(CC3)C(=O)Nc3ccccc34)ncnc2n1C [Compound 34, 9-methyl-N-(2-methylpropyl)-6-(2-oxo-1,2-dihydro-1′H-spiro[indole-3,4′-piperidin]-1′-yl)-9H-purine-8-carboxamide]	< 50
CN1C(=O)C2(CCN(c3ncnc4c3nc(C(=O)NCC3CC3)n4C)CC2)c2ccccc21 [Compound 141, N-(cyclopropylmethyl)-9-methyl-6-(1-methyl-2-oxo-1,2-dihydro-1′H-spiro[indole-3,4′-piperidin]-1′-yl)-9H-purine-8-carboxamide]	500 to 1500
CCc1nc2c(N3CCC(n4c(=O)[nH]c5ccccc54)CC3)ncnc2n1C [Compound 92, 1-[1-(8-ethyl-9-methyl-9H-purin-6-yl)piperidin-4-yl]-1,3-dihydro-2H-benzimidazol-2-one]	500 to 1500
Cc1c(-c2nc3c(N4CCC5(CC4)C(=O)Nc4ccccc45)ncnc3n2C)cnn1C [Compound 393, 1′-(8-(1,5-dimethyl-1H-pyrazol-4-yl)-9-methyl-9H-purin-6-yl)spiro[indoline-3,4′-piperidin]-2-one]	500 to 1500
Cn1c(C(=O)N2CCC2)nc2c(N3CCC4(CC3)C(=O)Nc3ccccc34)ncnc21 [Compound 90, 1′-[8-(azetidin-1-ylcarbonyl)-9-methyl-9H-purin-6-yl]spiro[indole-3,4′-piperidin]-2(1H)-one]	250 to 500
COc1ccc(S(=O)(=O)N2CCN(c3ncnc4c3nc(-c3cnn(C)c3)n4C)CC2)cc1OC [Compound 387, 6-(4-{[3,4-bis(methyloxy)phenyl]sulfonyl}-piperazin-1-yl)-9-methyl-8-(1-methyl-1H-pyrazol-4-yl)-9H-purine]	500 to 1500
Cc1nc2c(N3CCC(n4c(=O)[nH]c5ccccc54)CC3)ncnc2n1C [Compound 81, 1-[1-(8,9-Dimethyl-9H-purin-6-yl)piperidin-4-yl]-1,3-dihydro-2H-benzimidazol-2-one]	500 to 1500
CCn1ncc(-c2nc3c(N4CCC(n5c(=O)[nH]c6c(F)cccc65)CC4)ncnc3n2C)c1C [Compound 345, 1-{1-[8-(1-ethyl-5-methyl-1H-pyrazol-4-yl)-9-methyl-9H-purin-6-yl]piperidin-4-yl}-4-fluoro-1,3-dihydro-2H-benzimidazol-2-one]	< 50
Cn1cc(-c2nc3c(N4CCC(n5c(=O)[nH]c6c(F)cccc65)CC4)ncnc3n2C)cn1 [Compound 295, 4-fluoro-1-{1-[9-methyl-8-(1-methyl-1H-pyrazol-4-yl)-9H-purin-6-yl]piperidin-4-yl}-1,3-dihydro-2H-benzimidazol-2-one]	< 50
COC(=O)[C@H]1CN(c2ncnc3c2nc(-c2cnn(C)c2)n3C)CC[C@H]1n1c(=O)[nH]c2ccccc21 [Compound 317, methyl (3S,4R)-1-[9-methyl-8-(1-methyl-1H-pyrazol-4-yl)-9H-purin-6-yl]-4-(2-oxo-2,3-dihydro-1H-benzimidazol-1-yl)piperidine-3-carboxylate]	500 to 1500
Cn1c(C(=O)NCc2ccc(F)cc2F)nc2c(N3CCC(n4c(=O)[nH]c5ccccc54)CC3)ncnc21 [Compound 66, N-[(2,4-difluorophenyl)methyl]-9-methyl-6-[4-(2-oxo-2,3-dihydro-1H-benzimidazol-1-yl)piperidin-1-yl]-9H-purine-8-carboxamide]	500 to 1500
CCn1cc(-c2nc3c(N4CCC5(CC4)C(=O)Nc4ccccc45)ncnc3n2C)cn1 [Compound 237, 1′-[8-(1-Ethyl-1H-pyrazol-4-yl)-9-methyl-9H-purin-6-yl]spiro[indole-3,4′-piperidin]-2(1H)-one]	< 50
CCn1cc(-c2nc3c(N4CCC(c5c[nH]c6ccccc56)CC4)ncnc3n2C)cn1 [Compound 366, 8-(1-ethyl-1H-pyrazol-4-yl)-6-[4-(1H-indol-3-yl)piperidin-1-yl]-9-methyl-9H-purine]	250 to 500
CCn1c(-c2cnn(C)c2C)nc2c(N3CCC(n4c(=O)[nH]c5ccccc54)CC3)ncnc21 [Compound 260, 1-{1-[8-(1,5-dimethyl-1H-pyrazol-4-yl)-9-ethyl-9H-purin-6-yl]piperidin-4-yl}-1,3-dihydro-2H-benzimidazol-2-one]	< 50
Cn1c(C(=O)NCC2CC2)nc2c(N3CCC4(CC3)C(=O)Cc3ccccc34)ncnc21 [Compound 120, N-(cyclopropylmethyl)-9-methyl-6-(2-oxo-2,3-dihydro-1′H-spiro[indene-1,4′-piperidin]-1′-yl)-9H-purine-8-carboxamide]	50 to 250
COC(=O)[C@@H]1CN(c2ncnc3c2nc(-c2cnn(C)c2)n3C)CC[C@H]1n1c(=O)[nH]c2ccccc21 [Compound 334, methyl (3R,4R)-1-[9-methyl-8-(1-methyl-1H-pyrazol-4-yl)-9H-purin-6-yl]-4-(2-oxo-2,3-dihydro-1H-benzimidazol-1-yl)piperidine-3-carboxylate]	< 50
CCn1cc(-c2nc3c(N4CCN(c5ccccc5)CC4)ncnc3n2C)cn1 [Compound 368, 8-(1-ethyl-1H-pyrazol-4-yl)-9-methyl-6-(4-phenylpiperazin-1-yl)-9H-purine]	500 to 1500
CCNC(=O)c1nc2c(N3CCC(n4c(=O)[nH]c5ccccc54)CC3)ncnc2n1CC [Compound 192, N,9-diethyl-6-[4-(2-oxo-2,3-dihydro-1H-benzimidazol-1-yl)piperidin-1-yl]-9H-purine-8-carboxamide]	50 to 250
